Experimental findings from the supplement of paper PMC11208160 are described below.

The nature of the data set: recombinant barcode read abundance after kanamycin selection (control-corrected) (log10(CPM+1)); higher = more efficient recombination; sequences stand for … in AGTGCAGAGAAAATCGGCCAGTTTTCTCTGCCTGCAGTCCGCATGCCGT…AGATTTATGCAGCGGACTGCCTTTCTCCCAAAGTGATAAACCGGACAGTATCATGGACCGGTTTTCCCGGTAATCCGTATTTGCAAGGTTGGTTTCACT; site = the 11-nt target. The essentials:
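Duplicate cultures were plated either on chloramphenicol/ampicillin LB agar, serving as control, or on chloramphenicol/ampicillin/kanamycin with 0.1 mM IPTG. These came from a pooled E. coli library co-electroporated with a donor plasmid, each member pairing a target with an IS621 bridge RNA target-binding loop. Recombination efficiency equals averaged, control-corrected counts per million of recombinant-junction barcodes. It is listed as log10(CPM+1).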
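Further: IS621 recombinase and bridge RNA in Escherichia coli cells.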

As for “GCTAGTTCTTGGGTTCTAACCTGTTGCTT (site ACTCGTTCTAA)”, the “recombinant barcode read abundance (log10)” value amounted to 0.0742.
The value for “GCTAGTTCTTGGGTTCTAACCTGTTGCTT (site GCTAGTTCTAA)” was 0.351; that for “GCTCATACTTGGGTTCTAACCTGTTGCCT (site CACGCGCCTCC)” was 0.0433.
As to “GCTCATACTTGGGTTCTAACCTGTTGCCT (site GCTCATACTAG)”, the “recombinant barcode read abundance (log10)” value came out at 0.714.
On to “GCTCTAGCTTGGGTTCTAACCTGTTGCTA (site ACTCTAGCTGA)”, for which the “recombinant barcode read abundance (log10)” value came to 0.143.
The value for “GCTCTAGCTTGGGTTCTAACCTGTTGCTA (site GCTCTAGCTTA)” was 0.515; that for “GCTGCGACTTGGGTTCTAACCTGTTGCCT (site GCAGCGACTAG)” was 0.17.
In the case of “GCTGCGACTTGGGTTCTAACCTGTTGCCT (site GCCGCGACTAG)”, the “recombinant barcode read abundance (log10)” value turned out to be 0.101.
The value for “GCTGCGACTTGGGTTCTAACCTGTTGCCT (site GCGGCGACTAG)” was 0.0147; that for “GCTGCGACTTGGGTTCTAACCTGTTGCCT (site GCTGCGACTAG)” was 0.972; that for “GCTGCGCCTTGGGTTCTAACCTGTTGCCT (site GCCGGGCCTAG)” was 0.225.
The value for “GCTGCGCCTTGGGTTCTAACCTGTTGCCT (site GCTGCGCCTAG)” was 1.05.
The value for “GCTGGGTCTTGGGTTCTAACCTGTTGCTT (site GCAGGGTCTAA)” was 0.466; that for “GCTGGGTCTTGGGTTCTAACCTGTTGCTT (site GCCGGGTCTAA)” was 0.284.
For the sequence “GCTGGGTCTTGGGTTCTAACCTGTTGCTT (site GCGGGGTCTAA)”, the “recombinant barcode read abundance (log10)” value was 0.0202.
For “GCTGGGTCTTGGGTTCTAACCTGTTGCTT (site GCTGGGTCTAA)”, the “recombinant barcode read abundance (log10)” value is 1.65.
The value for “GCTTGGACTTGGGTTCTAACCTGTTGCAG (site CCTTGGACTTT)” was 0.175; that for “GCTTGGACTTGGGTTCTAACCTGTTGCAG (site GCTTGGACTCT)” was 1.72; that for “GGAAGGCCTTGGGTTCTAACCTGTTGCTT (site GGAAGGCCTAA)” was 0.221.
The value for “GGAAGGCCTTGGGTTCTAACCTGTTGCTT (site TTGGTCACTTG)” was 0.0545; that for “GGACACTCTTGGGTTCTAACCTGTTGCTA (site GGACACTCTAG)” was 2.32.
The value for “GGACACTCTTGGGTTCTAACCTGTTGCTA (site GGACACTCTTA)” was 2.15; that for “GGACATTCTTGGGTTCTAACCTGTTGCTT (site GGACATTCTAA)” was 0.319; that for “GGACATTCTTGGGTTCTAACCTGTTGCTT (site TGACATTCTAA)” was 0.0458.
With “GGACCCTCTTGGGTTCTAACCTGTTGCAC (site GGACCCTCTGT)”, the “recombinant barcode read abundance (log10)” value stood at 1.76.
The value for “GGACCCTCTTGGGTTCTAACCTGTTGCAC (site TACAAGACTAC)” was 0.0797; that for “GGACCTCCTTGGGTTCTAACCTGTTGCTT (site GGACCTCCTAA)” was 1.33; that for “GGACCTCCTTGGGTTCTAACCTGTTGCTT (site GGACCTCCTAC)” was 0.221.
For “GGACCTCCTTGGGTTCTAACCTGTTGCTT (site GGACCTCCTAG)”, the “recombinant barcode read abundance (log10)” value was 1.27.
The value for “GGACCTCCTTGGGTTCTAACCTGTTGCTT (site GGACCTCCTAT)” was 1.32; that for “GGACGCACTTGGGTTCTAACCTGTTGCGG (site CCTAAGCCTAT)” was 0.604; that for “GGACGCACTTGGGTTCTAACCTGTTGCGG (site GGACGCACTCC)” was 2.4.
The value for “GGACGCCCTTGGGTTCTAACCTGTTGCCT (site GGACGACCTAG)” was 0.427; that for “GGACGCCCTTGGGTTCTAACCTGTTGCCT (site GGACGCCCTAG)” was 1.35.
Take “GGACGCCCTTGGGTTCTAACCTGTTGCCT (site GGACGGCCTAG)”: the “recombinant barcode read abundance (log10)” value stood at 0.186.
The value for “GGACGCCCTTGGGTTCTAACCTGTTGCCT (site GGACGTCCTAG)” was 0.426.
The value for “GGACGTCCTTGGGTTCTAACCTGTTGCCT (site GGACGACCTAG)” was 0.0935; that for “GGACGTCCTTGGGTTCTAACCTGTTGCCT (site GGACGCCCTAG)” was 0.369; that for “GGACGTCCTTGGGTTCTAACCTGTTGCCT (site GGACGGCCTAG)” was 0.0468.
The value for “GGACGTCCTTGGGTTCTAACCTGTTGCCT (site GGACGTCCTAG)” was 0.734; that for “GGAGAGTCTTGGGTTCTAACCTGTTGCCT (site GAAGAGTCTAG)” was 2.17.
Take “GGAGAGTCTTGGGTTCTAACCTGTTGCCT (site GCAGAGTCTAG)”: the “recombinant barcode read abundance (log10)” value was found to be 0.995.
The value for “GGAGAGTCTTGGGTTCTAACCTGTTGCCT (site GGAGAGTCTAG)” was 2.45.
The value for “GGAGAGTCTTGGGTTCTAACCTGTTGCCT (site GTAGAGTCTAG)” was 1.09; that for “GGAGGAACTTGGGTTCTAACCTGTTGCCT (site GGAGGAACTAG)” was 2.39; that for “GGAGGAACTTGGGTTCTAACCTGTTGCCT (site GGAGGTACTAG)” was 0.1.
For “GGAGGACCTTGGGTTCTAACCTGTTGCTT (site GGAAGACCTTA)”, the “recombinant barcode read abundance (log10)” value is 0.19.
The value for “GGAGGACCTTGGGTTCTAACCTGTTGCTT (site GGAGGACCTAA)” was 2.4; that for “GGAGGGACTTGGGTTCTAACCTGTTGCCT (site GAAGGGACTAG)” was 1.38.
Consider “GGAGGGACTTGGGTTCTAACCTGTTGCCT (site GCAGGGACTAG)”, for which the “recombinant barcode read abundance (log10)” value stood at 0.658.
The value for “GGAGGGACTTGGGTTCTAACCTGTTGCCT (site GGAGGGACTAG)” was 2.69; that for “GGAGGGACTTGGGTTCTAACCTGTTGCCT (site GTAGGGACTAG)” was 1.7.
The value for “GGAGGTACTTGGGTTCTAACCTGTTGCCT (site GGAGGAACTAG)” was 0.0658; that for “GGAGGTACTTGGGTTCTAACCTGTTGCCT (site GGAGGTACTAG)” was 1.17.
In the case of “GGAGGTCCTTGGGTTCTAACCTGTTGCTA (site GGAGGTCCTTA)”, the “recombinant barcode read abundance (log10)” value turned out to be 2.08.
“GGAGGTCCTTGGGTTCTAACCTGTTGCTA (site TAAGGTCCTTA)”: the “recombinant barcode read abundance (log10)” value was 0.0399.
The value for “GGAGTACCTTGGGTTCTAACCTGTTGCAT (site CCTCATACTTG)” was 0.0895; that for “GGAGTACCTTGGGTTCTAACCTGTTGCAT (site GGAGTACCTAT)” was 2.12; that for “GGAGTTGCTTGGGTTCTAACCTGTTGCCT (site GGAGATTCTAG)” was 0.273.
The value for “GGAGTTGCTTGGGTTCTAACCTGTTGCCT (site GGAGTTGCTAG)” was 2.27; that for “GGATACACTTGGGTTCTAACCTGTTGCCT (site GGATACACTAG)” was 2.06; that for “GGATACACTTGGGTTCTAACCTGTTGCCT (site GGTTACACTAG)” was 0.395.
The value for “GGATCCACTTGGGTTCTAACCTGTTGCCA (site GGATACACTTG)” was 0.049; that for “GGATCCACTTGGGTTCTAACCTGTTGCCA (site GGATCCACTTG)” was 0.117.
For the sequence “GGATCCACTTGGGTTCTAACCTGTTGCCA (site GGATGCACTTG)”, the “recombinant barcode read abundance (log10)” value was 0.0631.
The value for “GGATCCACTTGGGTTCTAACCTGTTGCCA (site GGATTCACTTG)” was 0.0388; that for “GGATTCCCTTGGGTTCTAACCTGTTGCCA (site GGAGTCCCTTC)” was 0.242; that for “GGATTCCCTTGGGTTCTAACCTGTTGCCA (site GGATTCCCTTG)” was 1.15.
The value for “GGATTTACTTGGGTTCTAACCTGTTGCCT (site GGATATACTAG)” was 0.0849; that for “GGATTTACTTGGGTTCTAACCTGTTGCCT (site GGATTTACTAG)” was 0.276.
For “GGCAAGACTTGGGTTCTAACCTGTTGCCT (site GGAAAGACTAG)”, the “recombinant barcode read abundance (log10)” value was determined as 0.
The value for “GGCAAGACTTGGGTTCTAACCTGTTGCCT (site GGCAAGACTAG)” was 0.185; that for “GGCAAGACTTGGGTTCTAACCTGTTGCCT (site GGGAAGACTAG)” was 0.154; that for “GGCAAGACTTGGGTTCTAACCTGTTGCCT (site GGTAAGACTAG)” was 0.0715.
The value for “GGCACGGCTTGGGTTCTAACCTGTTGCCT (site GGCACAGCTAG)” was 0.519; that for “GGCACGGCTTGGGTTCTAACCTGTTGCCT (site GGCACCGCTAG)” was 0.0995.
The value for “GGCACGGCTTGGGTTCTAACCTGTTGCCT (site GGCACGGCTAG)” was 0.134.
